Results published in patent publication US5849322A, “Compositions and methods for buccal delivery of pharmaceutical agents” (Theratech, Inc., priority 1995, dated 1998).
Values joined by “and” are separate entries in the source; they are usually repeats but may differ in a detail not shown here. Equal values may be shown once. Read-outs that look alike come from different tables or passages of the source.

How the values were obtained:
[1] = in vivo; cited from earlier work
[2] = Plasma GLP-1(7-36)amide pharmacokinetics after buccal bilayer tablet; assay type: in vivo, human (healthy volunteers)
From the text: (§1) This example describes a double-blind, placebo-controlled, crossover comparison with random assignment to treatment sequence. […] Inclusion criteria for the volunteers were normal glucose tolerance, weight within 22<BMI<26, informed consent to participate in the study, and age between 20 and 60 years. Exclusion criteria were impaired glucose tolerance (2-hour glucose tolerance test; OGTT), gastrointestinal symptoms, ongoing medication or illness, acute infection, abnormal laboratory variables (hemoglobin, hematocrit, leucocytes, creatinine, bilirubin, calcium, potassium, sodium, alkaline phosphatase, gamma-GT, SGOT, SGPT, cholesterol, and triglycerides), and blood pressure greater than 185 mmHg systolic and/or 90 mmHg diastolic.
(§2) Subjects were instructed to fast the night before a treatment. At the clinic, the subjects were given either a drug-containing bilayer tablet or placebo. At time 0 the bilayer tablet was applied to the gingiva with the active layer in contact with the tissue of the lip or inside of the cheek, and the subjects were placed in a rest position. The bilayer tablet was removed after 4.5 hours. No meals were allowed until a standard meal was given after 4.5 hours, and snacks were not permitted at any time. The standard meal contained 550 kcal, with 28%, 22%, and 50% of the energy from protein, fat, and carbohydrate, respectively. The test continued until 8 hours after application of the bilayer tablet, and the subjects left the hospital after 9 hours. The subjects were given their medications in the clinic by a nurse and were under observation at all times. Any symptoms or sensations disturbing or impairing the subjects' wellbeing during the experiments was carefully documented. Standard safety variables were determined under fasting conditions before each experiment. Blood glucose was monitored frequently and glucose infusion was available in case of hypoglycemia (<2.5 mmol/L). If any subject were to experience hypoglycemic symptoms, an extra blood glucose determination would be taken for safety reasons A washout period of 1-4 days was allowed between each experiment The study was completed within 6 weeks after enrollment of the first volunteer.
(§3) The peptide content of bilayer tablet samples was also analyzed by HPLC. […] Results were tested for normal distribution. A two-tailed t-test was carried out for normally distributed samples, and a Wilcoxon rank-sum test was used for data that were not normally distributed. All statistical tests used a level of significance of 0.05.
This was done in comparison to published data.
The data summarized in FIG. 5 were analyzed by AUC to provide an estimate of relative bioavailability by buccal administration as compared to subcutaneous administration.

[3] = Buccal bilayer tablet, double-blind placebo-controlled crossover: blood glucose, plasma insulin and glucagon; assay type: in vivo, human (healthy volunteers)
From the text: as §1
Subject numbers were allotted to the subjects in the order in which they were enrolled in the study. The number allotted to each subject determined the treatment sequence received. Subjects receiving treatment sequence 1 were treated with drug followed by placebo, and subjects receiving treatment sequence 2 were treated with placebo followed by drug.
as §2, §3

[4] = Subcutaneous GLP-1 in fasting subjects (study by M. A. Nauck, FIG. 6), regression analysis; assay type: in vivo, human (fasting subjects)
From the text: This could be due to changes in bioavailability with dose, changes in clearance with dose, or a combination of both effects.

[5] = intravenous infusion, fasting individuals; cited from earlier work
[6] = Buccal delivery of salmon calcitonin in dogs; assay type: in vivo, dog (mongrel dogs); design: AUC infinity, buccal / AUC infinity, iv: concentration or dose not given beside the values
Procedure: (§4) Bilayer tablets prepared according to Examples 13-15 were tested in in vivo experiments to determine their effectiveness in delivering peptide X systemically to dogs. Mongrel dogs each weighing 30-35 kg were conditioned for one month prior to use. The dogs were mildly sedated with acepromazine, but were awake for the duration of each experiment. Tablets were attached to the gingiva with the active layer contacting and in drug transfer relationship to the buccal mucosa of the upper lip. Nylon muzzles were used to prevent the animals from licking the tablets. In this model, normal salivary functions were preserved and no irrigation was required. The saphenous vein was catheterized to permit venous blood sampling. Blood samples were collected into citrate "[…]" tubes and immediately chilled on ice for 15 minutes and then centrifuged for 10 minutes at 3400 rpm. The resultant supernatant plasma was then collected and stored in capped polypropylene tubes at -70° C. until analyzed for peptide X content.
The procedure of Example 16 was followed with the exception that salmon calcitonin was substituted for peptide X, and tablet sizes and numbers were varied in some experiments.

[7] = bile salts; cited from earlier work
[8] = Buccal delivery of insulin in dogs: blood glucose; assay type: in vivo, dog (mongrel dogs); conditions: 5 U/kg
Procedure: as §4
The procedure of Example 16 was followed with insulin-containing tablets prepared according to Example 6. The results shown in FIG. 8 are the average of 4 dogs, each given one 0.375 inch diameter buccal tablet containing 5 U/kg of drug. […] Beginning about 60 minutes after application, the blood glucose levels start to rise again, reaching normal levels about 120 minutes after application.

[9] = colon of a baboon, cited from earlier work
[10] = buccal bilayer tablet, 400 μg, FIG. 5
[11] = individual subjects 901-908 and mean, buccal, dose 119 nmol
[12] = buccal bilayer tablet, 400 μg, FIG. 3
[13] = buccal bilayer tablet, 400 μg, FIG. 4
[14] = buccal bilayer tablet, 400 μg, fasting, FIG. 2
[15] = average of 4 dogs, one 0.375 inch buccal tablet, FIG. 8

GLP-1(7-36)amide: gastrointestinal hormone processed from the preproglucagon gene; the naturally occurring form in humans
Effect on glucose-induced insulin release [1]: potentiates glucose-induced insulin release
Plasma GLP-1(7-36)amide level after the meal compared to placebo ([2]; after standard meal at 4.5 hours): approximately the same as that of the placebo group
Absorption through the buccal mucosa into the bloodstream ([2]; buccal bilayer tablet, 400 μg): rapid absorption through the buccal mucosa into the bloodstream
Start of rise of plasma GLP-1(7-36)amide level [2, 10]: ≤ 5 min
Time from which plasma GLP-1(7-36)amide tracks the placebo group [2, 10]: about 150 minutes
Time of peak plasma GLP-1(7-36)amide level [2, 10]: about 30 minutes
Time until which plasma GLP-1(7-36)amide declines rapidly [2, 10]: about 90 minutes
AUC [2, 11]: 11343 pmol·min/L and 3278 pmol·min/L and 8024 pmol·min/L and 9113 pmol·min/L and 7250 pmol·min/L and 8753 pmol·min/L and 8410 pmol·min/L
Bioavailability [2, 11]: 10.01% and 2.89% and 7.08% and 6.40% and 7.72% and 7.42%
Dose (second Dose column) [2, 11]: 11.91 nmol and 3.44 nmol and 9.57 nmol and 7.61 nmol and 9.19 nmol and 8.83 nmol
Plasma glucagon level at its low compared to placebo ([3]; about 30 minutes, buccal bilayer tablet, 400 μg, FIG. 4): significantly lower than the placebo group
Plasma glucagon level at its peak compared to placebo ([3]; after the low, buccal bilayer tablet, 400 μg, FIG. 4): significantly higher than the placebo group
Start of rise of plasma insulin level [3, 12]: 10 min
Time of decline of plasma insulin to normal [3, 12]: about 50 minutes
Time of peak plasma insulin level [3, 12]: about 20 minutes
Time from which plasma glucagon tracks the placebo group [3, 13]: about 150 minutes
Time of low of plasma glucagon level [3, 13]: about 30 minutes
Time of peak of plasma glucagon level [3, 13]: 60 to 75 min
Blood glucose levels compared to placebo controls ([3]; buccal bilayer tablet, 400 μg, fasting): significantly reduced blood glucose levels as compared to placebo controls
Lowest blood glucose level [3, 14]: about 3 mmol/L
Time by which blood glucose drops below that of the placebo group [3, 14]: ≤ 20 min
Time of lowest blood glucose level [3, 14]: about 50 minutes
Time of return of blood glucose to a normal level [3, 14]: about 90 minutes
Blood glucose levels of the two groups after the meal ([3]; drug vs placebo, after standard meal at 4.5 hours): indistinguishable after the meal
Plasma insulin level at 15 minutes after administration ([3]; relative to normal, buccal bilayer tablet, 400 μg, FIG. 3): about three time normal

GLP-1
Bioavailability by subcutaneous administration relative to intravenous administration ([4]; fasting subjects): 38%
Clearance ([4]; subcutaneous, regression analysis of all the results): about 40 ml/min/kg
Clearance [5]: ~15 mL/min/kg

Salmon Calcitonin
Buccal delivery into the bloodstream ([6]; bilayer tablet): delivered into the bloodstream of a warm-blooded animal by buccal delivery
ng Absorbed ([6]; individual dogs (Dog ID#), 2 buccal tablets, 1.27 or 0.71 cm^2): 72,958 ng and 16,461 ng and 20,989 ng and 6,535 ng and 23,379 ng and 17,614 ng
AUC infinity, buccal ([6]; individual dogs (Dog ID#), 2 tablets, first figure of "buc/iv"): 139 and 66 and 84 and 26 and 64 and 38
AUC infinity, iv ([6]; individual dogs (Dog ID#), second figure of "buc/iv"): 76 and 159 and 106 and 87

C[C@H](CCC(=O)O)[C@H]1CC[C@H]2[C@@H]3[C@H](O)C[C@@H]4C[C@H](O)CC[C@]4(C)[C@H]3C[C@H](O)[C@]12C [cholate]
Order of effectiveness in enhancing nasal absorption of insulin [7]: deoxycholate≤chenodeoxycholate≤cholate≤ursodeoxychola te

insulin: insulin-containing tablets prepared according to Example 6 (human insulin)
Start of rise of blood glucose [8, 15]: about 60 minutes
Start of sharp drop of blood glucose [8, 15]: about 15 minutes
Time of low level of blood glucose [8, 15]: about 40 minutes
Time of return of blood glucose to normal levels [8, 15]: about 120 minutes
Control of blood glucose levels ([8]; buccal delivery): effective in controlling blood glucose levels

heparin
Activity with bile salts in the formulation ([9]; with sodium cholate or deoxycholate): significant activity is detected
Transmucosal intestinal delivery (partial thromboplastin time prolongation or plasma lipase release) ([9]; without bile salt): not apparent

C[C@H](CCC(=O)O)[C@H]1CC[C@H]2[C@@H]3[C@H](O)C[C@@H]4C[C@H](O)CC[C@]4(C)[C@H]3CC[C@]12C [chenodeoxycholate]
Order of effectiveness in enhancing nasal absorption of insulin [7]: deoxycholate≤chenodeoxycholate≤cholate≤ursodeoxychola te

C[C@H](CCC(=O)O)[C@H]1CC[C@H]2[C@@H]3[C@@H](O)C[C@@H]4C[C@H](O)CC[C@]4(C)[C@H]3CC[C@]12C [ursodeoxychola te]
Order of effectiveness in enhancing nasal absorption of insulin [7]: deoxycholate≤chenodeoxycholate≤cholate≤ursodeoxychola te
